Assay results published in US10888561B2, “CGRP receptor antagonists” (Heptares Therapeutics Limited, priority 2015, dated 2021).

How the values were obtained:
CGRP receptor = CGRP receptor (Homo sapiens (Human), UniProt O60894+Q16602); conditions: literature; cited from earlier work
[1] = Thermodynamic solubility profiling; assay type: physicochemical; conditions: PBS buffer pH 7.4, 24 h at rt
Procedure: Thermodynamic solubility profiling. A 50 mM DMSO stock solution of test compound was prepared, and from this, a working solution of 1 mM was prepared by dilution with DMSO. The UV absorbance of working solution was scanned from 220 nm to 1000 nm to identify the wavelength maxima of test compound. The 1 mM working solution was then serially diluted in DMSO to different concentrations to determine linearity/calibration curve. […] The resulting solution was then kept on a RotoSpin shaker at 50 rpm for 24 h at rt before the solution was filtered using 0.45 micron PVDF injector filters in order to remove the insoluble fraction of the compound. Subsequently, 150 uL of the filtrate is taken for quantification using a UV spectrophotometer, acquiring the optical density of standard solutions and test compound at the same wavelength maxima. From the optical density of test compound the thermodynamic solubility is calculated using the linearity/calibration curve and expressed as micromolar (μM). Solubility profiles of certain compounds of the invention are detailed in Table 7.

migraine = conditions: humans, at 24 h after intravenous infusion of a 2.5 mg dose; cited from earlier work

Chain of CGRP receptor (Q16602 23-461): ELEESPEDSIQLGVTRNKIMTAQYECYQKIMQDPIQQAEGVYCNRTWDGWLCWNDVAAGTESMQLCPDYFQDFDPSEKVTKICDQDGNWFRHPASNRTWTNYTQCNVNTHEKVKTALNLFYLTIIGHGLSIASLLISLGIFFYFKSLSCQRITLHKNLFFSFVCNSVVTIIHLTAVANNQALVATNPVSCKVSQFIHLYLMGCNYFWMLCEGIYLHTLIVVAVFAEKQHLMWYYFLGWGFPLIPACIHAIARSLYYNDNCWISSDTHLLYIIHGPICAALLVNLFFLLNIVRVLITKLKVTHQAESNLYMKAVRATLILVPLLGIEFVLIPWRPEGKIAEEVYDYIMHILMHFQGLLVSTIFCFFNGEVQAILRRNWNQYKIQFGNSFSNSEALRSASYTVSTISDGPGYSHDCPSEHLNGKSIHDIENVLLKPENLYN
Chain of CGRP receptor (O60894 27-148): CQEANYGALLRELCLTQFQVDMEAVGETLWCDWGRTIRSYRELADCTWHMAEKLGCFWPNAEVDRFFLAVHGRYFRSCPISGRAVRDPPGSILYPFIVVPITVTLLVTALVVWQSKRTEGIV

Row | Thermodynamic solubility (μM) pH 7.4 [1] | SMILES | kinetics at the CGRP receptor (CGRP receptor) | headache-free rate (migraine)
1 |  | O=C(CN1C(=O)C2(CCCC2)NC[C@H]1c1cc(F)cc(F)c1)Nc1ccc2c(c1)C[C@@]1(C2)C(=O)Nc2ncccc21 [MK-3207] | relatively slow dissociation | 
2 | 1205 μM | Cc1cc(C[C@@H](NC(=O)N2CCC(N3Cc4ccccc4NC3=O)CC2)C(=O)N[C@@H](CC2CCNCC2)C(=O)N2CCN(c3ccncc3)CC2)cc2cn[nH]c12 [Example 10, N-[(2R)-3-(7-methyl-1H-indazol-5-yl)-1-oxo-1-({(2S) (2S)-1-oxo-3-(piperidin-4-yl)-1-[4-(pyridin-4-yl)piperazin-1-yl]propan-2-yl}amino)propan-2-yl]-4-(2-oxo-1,4-dihydroquinazolin-3(2H)-yl)piperidine-1-carboxamide] |  | 
3 |  | NCCCC[C@H](NC(=O)[C@@H](Cc1cc(Br)c(O)c(Br)c1)NC(=O)N1CCC(N2Cc3ccccc3NC2=O)CC1)C(=O)N1CCN(c2ccncc2)CC1 [olcegepant] | slow kinetics | 47%
